Measured values reported in patent US20210330611A1, “THERAPY FOR NEUROLOGICAL DISEASES/DISORDERS” (priority 2020, published 2021).
Counter-ions that a name gives are not always drawn. Like-named read-outs stand apart in the source and are kept apart here.

Legend:
[1] = tested on: fibrin-induced microglia activation; assay: Image-based assay of fibrin-induced microglia activation (HTS and dose response); type: cell-based, rat; details: for inhibition at 10 µM: Rattus norvegicus, Microglia, read-out: Fibrin % inhibition
[2] = tested on: LPS-induced microglia activation; assay: Image-based assay of LPS-induced microglia activation (HTS and dose response); type: cell-based, rat; details: for inhibition at 10 µM: Rattus norvegicus, Microglia, read-out: LPS % inhibition
[3] = tested on: fibrin- and LPS-induced microglia activation; assay: cells; type: cell-based, rat
[4] = tested on: primary rat microglia; assay: Cell toxicity (dead cells, size <150 μm2) in LPS assay
[5] = tested on: primary rat microglia; assay: Cell toxicity (dead cells, size <150 μm2) in coated fibrin (cFib) assay;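 note: share of dead cells sized under 150 µm2 at 10 µM in fibrin-stimulated microglia HTS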
[6] = primary microglia HTS, 10 μM, fibrin-stimulated, cell size >800 μm^2 as marker of activation
[7] = primary microglia HTS, 10 μM, LPS-stimulated, cell size >800 μm^2 as marker of activation
[8] = HTS of 1907 compounds, quadrant by fibrin and LPS inhibition
[9] = primary microglia HTS, 10 μM, LPS assay, cell size <150 μm^2 as marker of toxicity
[10] = primary microglia HTS, 10 μM, fibrin assay, cell size <150 μm^2 as marker of toxicity
[11] = primary microglia HTS, fibrin stimulation, increased cell size (>800 μm^2) as marker of activation
[12] = primary microglia HTS, LPS stimulation, increased cell size (>800 μm^2) as marker of activation
[13] = quadrant by fibrin and LPS inhibition in HTS of 1907 compounds
[14] = primary microglia HTS, LPS stimulation, decreased size (<150 μm^2) as marker of toxicity
[15] = primary microglia HTS, fibrin stimulation, decreased size (<150 μm^2) as marker of toxicity
[16] = primary microglia HTS, fibrin stimulation, activation = cell size >800 μm2
[17] = 48 h, primary microglia HTS, LPS stimulation, activation = cell size >800 μm2
[18] = primary microglia HTS, LPS stimulation, toxicity = cell size <150 μm2
[19] = primary microglia HTS, fibrin stimulation, toxicity = cell size <150 μm2
[20] = primary HTS, 10 μM, fibrin-stimulated primary microglia
[21] = primary HTS, 10 μM, LPS-stimulated primary microglia
[22] = primary HTS, 10 μM, LPS assay, dead cells size <150 μm2
[23] = primary HTS, 10 μM, fibrin assay, dead cells size <150 μm2
[24] = 48 h, primary microglia HTS, LPS stimulation, increased cell size (>800 μm^2) as marker of activation

CC1(C)O[C@@H]2[C@@H](CO[C@@]3(COS(N)(=O)=O)OC(C)(C)O[C@@H]23)O1 [Topiramate]
inhibition at 10 µM [1, 6]: 4%
inhibition at 10 µM [2, 7]: 5%
Quadrant (FIG. 5b) [3, 8]: Q4
LPS % cell toxicity [4, 9]: 0%
Fibrin % cell toxicity [5, 10]: 1%

CN1CCc2c(c3ccccc3n2Cc2ccccc2)C1.CN1CCc2c(c3ccccc3n2Cc2ccccc2)C1.O=S(=O)(O)c1cccc2c(S(=O)(=O)O)cccc12 [Mebhydrolin Naphthalenesulfonate]
Fibrin % inhibition [1, 11]: 4%
LPS % inhibition [2, 12]: 17%
Quadrant (FIG. 5b) [3, 13]: Q4
LPS % cell toxicity [4, 14]: 0%
Fibrin % cell toxicity [5, 15]: 1%

Gramicidin
Fibrin % inhibition [1, 11]: 114%
LPS % inhibition [2, 12]: 118%
Quadrant (FIG. 5b) [3, 13]: Q2
LPS % cell toxicity [4, 14]: 64%
Fibrin % cell toxicity [5, 15]: 43%

CN1CCc2cc3c(cc2C1O)OCO3 (centres unmarked) [Hydrastinine Hydrochloride]
inhibition at 10 µM [1, 16]: 0%
inhibition at 10 µM [2, 17]: 22%
Quadrant (FIG. 5b) [3, 13]: Q4
LPS % cell toxicity [4, 18]: 0%
Fibrin % cell toxicity [5, 19]: 1%

Cc1cccc(Nc2ccncc2S(=O)(=O)NC(=O)NC(C)C)c1 [Torasemide]
inhibition at 10 µM [1, 6]: -29%
inhibition at 10 µM [2, 7]: 7%
Quadrant (FIG. 5b) [3, 8]: Q4
LPS % cell toxicity [4, 9]: 0%
Fibrin % cell toxicity [5, 10]: 1%

CO/N=C(\C(=O)N[C@@H]1C(=O)N2C(C(=O)O)=C(CSc3nnnn3C)CS[C@H]12)c1csc(N)n1 [Cefmenoxime Hydrochloride]
inhibition at 10 µM [1, 20]: -15%
inhibition at 10 µM [2, 21]: 2%
Quadrant (FIG. 5b) ([3]; primary HTS, 10 μM): Q4
LPS % cell toxicity [4, 22]: 0%
Fibrin % cell toxicity [5, 23]: 0%

CCCCN1CCCCC1C(=O)Nc1c(C)cccc1C (centres unmarked) [Bupivacaine]
inhibition at 10 µM [1, 20]: 12%
inhibition at 10 µM [2, 21]: 23%
Quadrant (FIG. 5b) ([3]; primary HTS, 10 μM): Q4
LPS % cell toxicity [4, 22]: 0%
Fibrin % cell toxicity [5, 23]: 1%

CCn1cc(C(=O)O)c(=O)c2cc(F)c(N3CCNCC3)nc21 [Enoxacin]
inhibition at 10 µM [1, 11]: 113%
inhibition at 10 µM [2, 24]: 119%
Quadrant (FIG. 5b) [3, 13]: Q2
LPS % cell toxicity [4, 14]: 12%
Fibrin % cell toxicity [5, 15]: 84%

CNCC(O)c1ccc(O)cc1 (centres unmarked) [Synephrine]
inhibition at 10 µM [1, 6]: -16%
inhibition at 10 µM [2, 7]: 12%
Quadrant (FIG. 5b) [3, 8]: Q4
LPS % cell toxicity [4, 9]: 0%
Fibrin % cell toxicity [5, 10]: 0%

CC(C(=O)O)c1ccc(-c2ccccc2)c(F)c1 (centres unmarked) [Flurbiprofen]
inhibition at 10 µM [1, 16]: 17%
inhibition at 10 µM [2, 17]: 33%
Quadrant (FIG. 5b) [3, 13]: Q4
LPS % cell toxicity [4, 18]: 0%
Fibrin % cell toxicity [5, 19]: 0%

C[C@H]1O[C@@H](O[C@H]2CC[C@@]3(C)[C@H](CC[C@@H]4[C@@H]3C[C@@H](O)[C@]3(C)[C@@H](C5=CC(=O)OC5)CC[C@]43O)C2)C[C@H](O)[C@@H]1O[C@H]1C[C@H](O)[C@H](O[C@H]2C[C@H](O)[C@H](O[C@@H]3O[C@H](CO)[C@@H](O)[C@H](O)[C@H]3O)[C@@H](C)O2)[C@@H](C)O1 [Deslanoside]
inhibition at 10 µM [1, 11]: -3%
inhibition at 10 µM [2, 24]: 67%
Quadrant (FIG. 5b) [3, 13]: Q1
LPS % cell toxicity [4, 14]: 1%
Fibrin % cell toxicity [5, 15]: 1%

CC1(C)O[C@@H]2C[C@H]3[C@@H]4CCC5=CC(=O)CC[C@]5(C)[C@@]4(F)[C@@H](O)C[C@]3(C)[C@]2(C(=O)CCl)O1 [Halcinonide]
inhibition at 10 µM [1, 11]: 103%
inhibition at 10 µM [2, 24]: 95%
Quadrant (FIG. 5b) [3, 13]: Q2
LPS % cell toxicity [4, 14]: 2%
Fibrin % cell toxicity [5, 15]: 8%

CC(C)(C)NCC(O)c1cc(O)cc(O)c1 (centres unmarked) [Terbutaline]
inhibition at 10 µM [1, 6]: 39%
inhibition at 10 µM [2, 7]: 28%
Quadrant (FIG. 5b) [3, 8]: Q4
LPS % cell toxicity [4, 9]: 0%
Fibrin % cell toxicity [5, 10]: 1%

Oc1noc2c1CCNC2 [Gaboxadol]
inhibition at 10 µM [1, 16]: -43%
inhibition at 10 µM [2, 17]: 3%
Quadrant (FIG. 5b) [3, 13]: Q4
LPS % cell toxicity [4, 18]: 0%
Fibrin % cell toxicity [5, 19]: 0%

CO/N=C(\C(=O)N[C@@H]1C(=O)N2C(C(=O)O)=C(COC(C)=O)CS[C@H]12)c1csc(N)n1 [Cefotaxime Sodium]
Fibrin % inhibition [1, 20]: −1%
LPS % inhibition [2, 21]: 3%
Quadrant (FIG. 5b) ([3]; primary HTS, 10 μM): Q4
LPS % cell toxicity [4, 22]: 0%
Fibrin % cell toxicity [5, 23]: 0%

CCOc1nc2cccc(C(=O)O)c2n1Cc1ccc(-c2ccccc2-c2nnn[nH]2)cc1 [Candesartan]
inhibition at 10 µM [1, 20]: 9%
inhibition at 10 µM [2, 21]: 11%
Quadrant (FIG. 5b) ([3]; primary HTS, 10 μM): Q4
LPS % cell toxicity [4, 22]: 0%
Fibrin % cell toxicity [5, 23]: 1%
